Reference: paper PMC12207533, “Structure-guided design of a methyltransferase-like 3 (METTL3) proteolysis targeting chimera (PROTAC) incorporating an indole–nicotinamide chemotype” (RSC Medicinal Chemistry, 2025)
Where “and” joins values, the source holds several entries; their conditions need not be identical. Equal values may be shown once. Read-outs that look alike come from different tables or passages of the source. Each block holds one compound with its values, some of them ahead of it.

Experiments:
Bcl-2 = test: Immunoblotting of Bcl-2 protein levels in MOLM-13 cells; type: cell-based, human; details: 2 μM, time course
Experimental: (§1) MOLM-13 were seeded in 12-well cell culture plates at a density of 1 × 10^6 cells per mL and treated with DMSO (final: 0.1%) or different concentrations of PROTAC degraders in DMSO at the indicated times. Treatments were conducted in biological triplicate with varying passages of MOLM-13 cells. The cells were harvested by centrifugation at 500g for 5 min and washed with PBS. The cells were lysed with RIPA lysis buffer with the addition of protease inhibitor (1× cOMPLETE), and insoluble cellular parts were separated by centrifugation (12 000g for 10 min), subsequently, the supernatant was boiled with 1× Laemmli sample buffer (Carl Roth) for 5 min at 95 °C. Proteins were separated by SDS–PAGE on 4–20% Criterion™ TGX™ Precast Protein Gels (Bio-Rad) and transferred to Amersham™ Protean® 0.45 μm nitrocellulose membrane (Cytiva) using semi-dry transfer (25 V, 1 A, Towbin buffer). […] The protein bands were detected via chemiluminescence using Pierce™ ECL western blotting substrate and a Fusion FX imaging system (Vilber). The ImageLab software (Bio-Rad) was used for band quantification.

[1] = test system: m^6A levels in MOLM-13 mRNA; test: RNA m^6A quantification (colorimetric kit); type: cell-based, human; details: MOLM-13, AF151 2 μM vs STM2457 10 μM, 24 and 48 h
Experimental: Quantification of m^6A levels upon compound treatment was conducted in analogy to the study introducing the WD6305 PROTAC.[31] MOLM-13 cells were treated with AF151 (2 μM), STM2457 (10 μM), and DMSO in triplicate for 24 and 48 h. Total RNA was isolated as specified above. PolyA mRNA was then isolated using the PolyATtract® mRNA Isolation System (Promega). m^6A levels were quantified using a colorimetric m^6A RNA methylation Assay Kit (Abcam) as specified in the manufacturer's protocol.

MOLM-13 cells [2] = test: Synergy analysis (ZIP, SynergyFinder+) of AF151 and venetoclax on cell viability; type: cell-based, human; details: co-treatment with venetoclax, 72 h
Experimental: (§2) To determine cell viability, MOLM-13 cells were treated with the indicated compounds in a 1 : 1 serial dilution, with pure DMSO (final: 0.1%) as the negative control. Briefly, 1000 cells were seeded in black Greiner half-area 96-well plates and incubated for 72 h with inhibitors from DMSO stocks under standard cultivation conditions. Then, Promega CellTiter Glo 2.0 reagent was added to each well according to the manufacturer's protocols, and luminescence was measured using a Tecan Spark 10 M. Experiments were conducted in technical triplicate. Data was normalized to the DMSO control and analyzed with GraphPad Prism 8.0.1 to determine EC50 values. Synergistic effects of venetoclax and AF151 on cell MOLM-13 viability were conducted accordingly, with dilution series of both compounds analyzed using the SynergyFinder+ webtoolkit.[57]

human VHL = molecular target: T1, human VHL (Homo sapiens, UniProt P40337); test: HTRF human VHL binding kit
T1 construct: purchased Revvity
T1 sequence (P40337 whole entry): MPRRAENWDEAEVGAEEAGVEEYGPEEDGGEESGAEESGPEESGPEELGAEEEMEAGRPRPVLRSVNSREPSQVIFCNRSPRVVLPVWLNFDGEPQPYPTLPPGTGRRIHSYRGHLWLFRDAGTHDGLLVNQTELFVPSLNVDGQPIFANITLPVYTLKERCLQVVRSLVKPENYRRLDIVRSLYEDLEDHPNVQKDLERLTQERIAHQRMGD
T1 sequence (Q15370 whole entry partner): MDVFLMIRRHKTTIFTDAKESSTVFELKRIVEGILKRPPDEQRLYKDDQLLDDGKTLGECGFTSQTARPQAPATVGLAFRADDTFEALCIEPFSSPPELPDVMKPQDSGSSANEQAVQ
T1 sequence (Q15369 whole entry partner): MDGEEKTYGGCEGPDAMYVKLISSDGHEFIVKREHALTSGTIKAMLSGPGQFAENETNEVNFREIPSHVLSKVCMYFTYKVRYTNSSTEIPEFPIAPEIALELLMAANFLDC
Experimental: PROTACs binding to VHL or CRBN were measured using a homogeneous time-resolved fluorescence (HTRF) human VHL or CRBN binding kit (Revvity). Samples were prepared according to the manufacturer's protocol, with compounds diluted in the provided diluent while maintaining a constant DMSO concentration with a final concentration of 1.25%. For the ternary KD determinations, METTL3/14 was added at 4 μM, corresponding to approximately a 20- to 40-fold excess of binary KD, while all other component concentrations were kept as specified in the protocol. Measurements were performed in triplicate using a Tecan Spark 10 M plate reader, recording donor and acceptor emissions at λem_donor = 620 nm and λem_acceptor = 665 nm, respectively, following excitation of the HTRF donor at λex = 320 nm. The acceptor-to-donor emission ratio was calculated as ratio = signal 665 nm/signal 620 nm. Using GraphPad Prism 8.0.1, the fluorescence values were normalized, and KD values were calculated as specified above.

[3] = molecular target: T2, VCB (VHL, elongin B, elongin C) (Homo sapiens, UniProt P40337); test: FP displacement assay with VCB (binary and ternary KD, cooperativity); type: binding
T2 construct: VHL (UniProt: P40337, aa 1–213); His6 (N); made in house; host or cells: E. coli BL21 (DE3)
T2 sequence (P40337 whole entry, the tested form may be a part): as the sequence (P40337 whole entry) above
T2 sequence (Q15370 whole entry partner, the tested form may be a part): as the sequence (Q15370 whole entry partner) above
T2 sequence (Q15369 17-112 partner limits assumed): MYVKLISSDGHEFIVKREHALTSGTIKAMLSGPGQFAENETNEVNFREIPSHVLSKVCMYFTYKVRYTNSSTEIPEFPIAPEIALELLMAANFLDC
Experimental: (§3) Fluorescence polarization (FP) displacement assays with METTL3/14 (ref. [36]) and VCB[38–40] were performed following previous protocols with slight adaptations. All experiments were conducted in black Greiner 96-well half-area plates using a Tecan Spark 10 M plate reader, equipped with polarization filters coupled to a monochromator setup (λex = 480 nm, λem = 530 nm). Reaction mixtures for METTL3/14 contained 300 nM recombinant enzyme, 20 nM FAM-labelled displacement tracer (STM-FL[36]), and the test compounds at varying concentrations in 25 mM Tris HCl, pH 7.5, 100 mM NaCl, and 10% DMSO. For VCB, the mixtures contained 40 nM recombinant enzyme, 10 nM FAM-labelled probe (FAM-DEALAHyp[…], Tocris Bioscience), and the tested compounds, at varying concentrations, in 50 mM Tris, pH 7.5, 200 mM NaCl, 2 mM DTT, and 10% DMSO. […] All measurements were performed at least as technical triplicates. Polarization values (mP) were determined from polarization-specific parallel and orthogonal fluorescence intensities using the Tecan in-built calculation routine. Using GraphPad Prism 8.0.1, the FP values were normalized, and KD values were calculated using a 4-parameter Hill equation: y(% probe bound) = bottom + ([ligand]slope) × (top–bottom)/([ligand]slope + KD slope).

METTL14 = test: Immunoblotting of METTL14 protein levels in MOLM-13 cells; type: cell-based, human
Experimental: as §1

METTL3/14 = molecular target: T3, METTL3/14 (Homo sapiens, UniProt Q86U44); test: Fluorescence polarization (FP) displacement assay with METTL3/14; type: binding
T3 construct: human METTL3 (UniProt: Q86U44, aa 252–580); Strep-tag II (C); made in house; host or cells: E. coli BL21 (DE3)
T3 sequence (Q86U44 252-580): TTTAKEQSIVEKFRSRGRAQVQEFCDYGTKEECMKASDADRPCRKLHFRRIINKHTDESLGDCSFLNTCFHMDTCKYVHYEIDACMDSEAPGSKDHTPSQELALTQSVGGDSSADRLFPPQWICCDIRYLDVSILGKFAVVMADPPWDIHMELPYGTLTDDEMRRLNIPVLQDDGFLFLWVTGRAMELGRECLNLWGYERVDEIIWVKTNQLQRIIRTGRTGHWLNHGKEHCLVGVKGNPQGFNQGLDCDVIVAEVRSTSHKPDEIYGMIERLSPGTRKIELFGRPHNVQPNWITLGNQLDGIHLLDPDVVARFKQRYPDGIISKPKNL
T3 sequence (Q9HCE5 108-444 partner limits assumed): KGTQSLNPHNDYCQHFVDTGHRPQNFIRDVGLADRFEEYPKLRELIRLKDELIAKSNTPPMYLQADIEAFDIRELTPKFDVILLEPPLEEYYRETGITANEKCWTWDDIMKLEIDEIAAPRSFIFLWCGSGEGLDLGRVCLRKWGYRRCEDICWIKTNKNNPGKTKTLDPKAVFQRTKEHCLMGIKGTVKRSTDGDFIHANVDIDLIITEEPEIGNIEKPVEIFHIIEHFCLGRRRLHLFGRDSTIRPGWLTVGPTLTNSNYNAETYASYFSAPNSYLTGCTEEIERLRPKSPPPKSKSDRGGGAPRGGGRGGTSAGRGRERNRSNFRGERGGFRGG
Experimental: as §3

MOLM-13 cells [4] = test: Real-time annexin V apoptosis assay; type: cell-based, human; details: MOLM-13, dose-dependent, monitored over 48 h
Experimental: MOLM-13 cells were treated with AF151 at the indicated concentrations for 48 h, with DMSO (final: 0.1%) as the negative control. Apoptosis of technical triplicate samples was detected in real-time using the RealTime-Glo™ annexin V apoptosis assay kit (Promega), following the manufacturer's protocol. Data were plotted using GraphPad Prism 8.0.1.

MOLM-13 cells [5] = test: Cell viability assay (CellTiter Glo 2.0); type: cell-based, human; details: Homo sapiens, MOLM-13, 72 h; read-out: IC50 (cell viability inhibition)
Experimental: as §2

Mcl-1 = test: Immunoblotting of Mcl-1 protein levels in MOLM-13 cells; type: cell-based, human; details: 2 μM, time course
Experimental: as §1

METTL3 = molecular target: T4, METTL3 (Homo sapiens, UniProt Q86U44); test: Immunoblotting of METTL3 protein levels in MOLM-13 cells; type: cell-based
T4 construct: endogenous in cells; host or cells: MOLM-13
T4 sequence (Q86U44 whole entry): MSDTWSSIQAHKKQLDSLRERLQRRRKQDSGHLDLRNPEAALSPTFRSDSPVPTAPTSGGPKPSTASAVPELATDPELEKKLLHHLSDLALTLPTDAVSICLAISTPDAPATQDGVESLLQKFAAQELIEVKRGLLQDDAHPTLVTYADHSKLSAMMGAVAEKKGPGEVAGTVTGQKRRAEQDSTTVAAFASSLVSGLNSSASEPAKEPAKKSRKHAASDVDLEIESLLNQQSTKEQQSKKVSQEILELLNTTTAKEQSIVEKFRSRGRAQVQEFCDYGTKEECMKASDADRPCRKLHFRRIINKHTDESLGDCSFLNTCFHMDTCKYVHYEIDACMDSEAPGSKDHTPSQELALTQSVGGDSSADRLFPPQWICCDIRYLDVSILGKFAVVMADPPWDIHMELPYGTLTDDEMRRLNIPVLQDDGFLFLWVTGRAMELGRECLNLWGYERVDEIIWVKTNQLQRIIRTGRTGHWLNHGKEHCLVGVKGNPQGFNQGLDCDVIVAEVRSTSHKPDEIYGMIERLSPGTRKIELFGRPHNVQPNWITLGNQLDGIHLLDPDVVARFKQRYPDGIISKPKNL
Experimental: MOLM-13 were seeded in 12-well cell culture plates at a density of 1 × 10^6 cells per mL and treated with DMSO (final: 0.1%) or different concentrations of PROTAC degraders in DMSO at the indicated times. Treatments were conducted in biological triplicate with varying passages of MOLM-13 cells. The cells were harvested by centrifugation at 500g for 5 min and washed with PBS. The cells were lysed with RIPA lysis buffer with the addition of protease inhibitor (1× cOMPLETE), and insoluble cellular parts were separated by centrifugation (12 000g for 10 min), subsequently, the supernatant was boiled with 1× Laemmli sample buffer (Carl Roth) for 5 min at 95 °C. Proteins were separated by SDS–PAGE on 4–20% Criterion™ TGX™ Precast Protein Gels (Bio-Rad) and transferred to Amersham™ Protean® 0.45 μm nitrocellulose membrane (Cytiva) using semi-dry transfer (25 V, 1 A, Towbin buffer). The membrane was blocked with 5% milk (Carl Roth) in TBST buffer and incubated with the following primary antibodies: Anti-METTL3 (1 : 1000, Abcam, ab195352), anti-METTL14 (1 : 1000, Abcam, ab220030), anti-Bcl2 (1 : 1000, Cell Signaling Technology [CST], EPR16891), anti-Mcl-1 (1 : 1000, CST, 5453 T), anti-Bcl-XL (1 : 1000, CST, 2764 T), anti-vinculin (1 : 1000, CST, 13901) or anti-GAPDH (1 : 5000, CST, D17C4) overnight at 4 °C. Subsequently, the membrane was incubated for 1 h at RT with secondary antibodies: anti-rabbit (1 : 2000, VWR, NA934) or anti-mouse (1 : 2000, VWR, 102646-160). The protein bands were detected via chemiluminescence using Pierce™ ECL western blotting substrate and a Fusion FX imaging system (Vilber). The ImageLab software (Bio-Rad) was used for band quantification.

METTL3 mRNA = test: RT-qPCR of METTL3 mRNA expression; type: cell-based, human; details: MOLM-13, AF151 2 μM or STM2457 10 μM, 24 h and 48 h
Experimental: (§4) To determine mRNA expression levels of METTL3 and METTL14, MOLM-13 cells were treated in triplicate with compound 41 (AF151, 2 μM), STM2457 (10 μM), and DMSO for 24 resp. 48 h. Afterward, total RNA was extracted using the TRIzol™ reagent (Thermo Fisher Scientific) and purified with the Monarch® Spin RNA Cleanup Kit (New England Biolabs). RT-qPCR was conducted using the two-step GoTaq® RT-qPCR system (Promega) following the manufacturer's protocol. The data were normalized to the DMSO control and GAPDH housekeeping gene (ΔΔCt) using GraphPad Prism 8.0.1.

Bcl-XL = test: Immunoblotting of Bcl-XL protein levels in MOLM-13 cells; type: cell-based, human; details: 2 μM, time course
Experimental: as §1

METTL14 mRNA = test: RT-qPCR of METTL14 mRNA expression; type: cell-based, human; details: MOLM-13, AF151 2 μM or STM2457 10 μM, 24 h and 48 h
Experimental: as §4

- Kd (human VHL; HTRF Human VHL Binding Kit, binary, read-out: KD E3-ligases (VHL, HTRF)): 0.74 ± 0.113 µM
- cooperativity (HTRF) (human VHL; VHL affinity in presence and absence of METTL3/14 (4 μM)): positive cooperativity
- Kd ([3]; absence of METTL3, read-out: KD binary (VHL)): 0.363 µM
- Kd ([3]; presence of METTL3/14 (12 μM), read-out: KD ternary (VHL)): 0.0799 µM and 0.077 µM
- Kd (METTL3/14): 0.159 ± 0.026 µM
- IC50 (MOLM-13 cells [5]): 0.45 µM
- time for which maximal METTL3 degradation is maintained (METTL3; 2 μM, time course, MOLM-13): at least 48 h
- time of maximal METTL3 degradation effect (METTL3; 2 μM, time course, MOLM-13): 24 h
- METTL3 reduction (METTL3; 2 μM, within the first 6 h of treatment, MOLM-13): over 50%
- METTL3 degradation (Western blot) (METTL3; MOLM-13, 1 μM, 16 h): significant degradation
- concentration of hook effect (METTL3 degradation decreased) (METTL3; MOLM-13, 16 h): > 5 µM
- DC50 (METTL3; MOLM-13, 16 h treatment, read-out: DC50 (METTL3 degradation)): 0.43 µM
- METTL3 degradation on co-treatment with MLN4924 (METTL3; MOLM-13, MLN4924 1 μM): suppressed METTL3 degradation
- Dmax at 2.5 µM (METTL3; MOLM-13, MOLM-13, 16 h, maximal degradation occurred at 2.5 μM): 95%
- METTL3 degradation on co-treatment with STM2457 (METTL3; MOLM-13, STM2457 20 μM): inhibited degradation
- METTL3 degradation on co-treatment with VH032 (METTL3; MOLM-13, VH032 10 μM): suppressed METTL3 degradation
- METTL3 degradation on co-treatment with bortezomib (METTL3; MOLM-13, bortezomib 1 μM): suppressed METTL3 degradation
Structure (SMILES): Cc1ncsc1-c1ccc(CNC(=O)[C@@H]2C[C@@H](O)CN2C(=O)[C@@H](NC(=O)CCc2ccc(-c3ccc(COc4cncc(C(=O)NCc5ccc6cc(CN7CCC(C)(C)CC7)[nH]c6c5)c4)cc3)cc2)C(C)(C)C)cc1 [compound 41]
- effect on Bcl-2 protein level (Bcl-2): time-dependent reduction
- t1/2 of Bcl-2 protein level decrease (Bcl-2): 18 h
- global m^6A level reduction in mRNA [1]: more pronounced m^6A reduction
- maximum ZIP synergy score (MOLM-13 cells [2]): 28.87
- mean ZIP synergy score (MOLM-13 cells [2]): 3.38
- METTL14 protein level relative to DMSO (transient increase) (METTL14; 2 μM, after 1 h, MOLM-13): ~150%
- METTL14 degradation (Western blot) (METTL14; MOLM-13, 1 μM, 16 h): significant degradation
- time to apoptosis induction (MOLM-13 cells [4]): approximately 10 h
- effect on Mcl-1 protein level (Mcl-1): time-dependent reduction
- METTL3 mRNA level (ΔΔCt) (METTL3 mRNA): no significant changes
- effect on Bcl-XL protein level (Bcl-XL): but not Bcl-XL
- METTL14 mRNA level (ΔΔCt) (METTL14 mRNA): no significant changes

- METTL3 degradation (Western blot screening) (METTL3; MOLM-13, 0.1-10 μM, 16 h): do not func?on as METTL3 degraders
Structure (SMILES): COc1cc2c(cc1Cc1cccc(Cl)c1F)c(=O)c(C(=O)O)cn2[C@H](CO)C(C)C [Elvitegravir, reference compound]
